Results as given in patent US9107967B2, “Apparatus and method for treating stored crops infected with toxins” (Pureline Treatment Systems, LLC, priority 2010, dated 2015).

What was measured:
[1] = Application of aqueous ClO2 solution to wheat during tempering or sweating; conditions: 75 ppm aqueous ClO2 solution applied for 12 hours during tempering; approximately 12 ppm prior to application
Protocol: During processing of certain grains, such as wheat, a sweating or tempering step is used. During this step, the grain is contacted with water. The grain can be contacted with water for various amounts of time. In some examples the contacting occurs over night, in other examples the contacting occurs from 12-24 hours. This can be used as an opportunity the introduce an aqueous ClO2 solution.
Applicants conducted a study where a 75 ppm aqueous ClO2 solution was applied to wheat during tempering or sweating. The aqueous ClO2 solution was applied to the wheat for 12 hours.

[2] = Treatment of mycotoxin-infected corn kernels with aqueous ClO2 solution, then testing ground corn for mycotoxins; conditions: corn kernels exposed to 400 ppm aqueous ClO2 solution for two hours; untreated corn 9 ppm
Excerpt: Applicants conducted a study in order to determine the effects of ClO2 on toxins. Applicants obtained corn infected with mycotoxins and mycotoxin-producing microorganisms. Applicants exposed the corn kernels to an aqueous ClO2 solution with a concentration of 400 ppm for two hours. Applicants drained the aqueous ClO2 solution from the corn. Applicants ground the corn and tested for the presence of mycotoxins. Applicants also ground untreated corn from the batch and tested that corn for the presence of mycotoxins.

[3] = Treatment of mash from mycotoxin-infected ground corn with heated aqueous ClO2 solution, then testing mash for mycotoxins; conditions: mash exposed to 200 ppm aqueous ClO2 solution heated to 185° F for two hours; untreated 12 ppm
Protocol: Applicants conducted another study in order to determine the effects of ClO2 on toxins. Applicants obtained corn infected with mycotoxins and mycotoxin-producing microorganisms. Applicants ground the corn kernels and mixed them with water to form a mash, similar to what is used in various fermentation plants. Applicants heated an aqueous ClO2 solution with a concentration of 200 ppm to 185° F. Applicants then exposed the mash to the heated aqueous chlorine dioxide solution for two hours. Applicants drained the aqueous ClO2 solution from the mash. Applicants tested the mash for the presence of mycotoxins. Applicants also tested untreated mash from the same batch for the presence of mycotoxins.

[O][Cl+][O-] [ClO2, chlorine dioxide]
concentration of Vomitoxin in wheat after application [1]: approximately 1 ppm | concentration of Vomitoxin in treated corn [2]: 2.3 ppm | concentration of Vomitoxin in treated corn (mash) [3]: 0.5 ppm
